Measurements published in patent publication US20110166123A1, “NOVEL COMPOSITIONS AND METHODS OF USE” (priority 2008, published 2011).

test system: human immunodeficiency virus type 1 (HIV-1); assay: microbe, parasite or virus in culture; assay type: cell-based; conditions: Human immunodeficiency virus 1, HeLa, 48 h, HIV-1 luciferase reporter, HeLa cells, 48 hours after infection

`COc1nc2c(cc1NCCc1cccc(Cl)c1)c(=O)c(C(=O)O)cn2[C@H](CO)C(C)C` [Example 20G, (S)-6-(3-chlorophenethylamino)-1-(1-hydroxy-3-methylbutan-2-yl)-7-methoxy-4-oxo-1,4-dihydro-1,8-naphthyridine-3-carboxylic acid] and `COc1nc2c(cc1NCc1cccc(Cl)c1)c(=O)c(C(=O)O)cn2[C@H](CO)C(C)C` [Example 20I, (S)-6-(3-chlorobenzylamino)-1-(1-hydroxy-3-methylbutan-2-yl)-7-methoxy-4-oxo-1,4-dihydro-1,8-naphthyridine-3-carboxylic acid] cannot be ordered by EC50: > 100 nM for the first, > 100 nM for the second.

`COc1nc2c(cc1NCc1c(F)ccc(F)c1F)c(=O)c(C(=O)O)cn2[C@H](CO)C(C)C` [Example 20GG, (S)-1-(1-hydroxy-3-methylbutan-2-yl)-7-methoxy-4-oxo-6-(2,3,6-trifluorobenzylamino)-1,4-dihydro-1,8-naphthyridine-3-carboxylic acid] and `COc1nc2c(cc1NCc1c(F)cccc1F)c(=O)c(C(=O)O)cn2[C@H](CO)C(C)C` [Example 20Z, (S)-6-(2,6-difluorobenzylamino)-1-(1-hydroxy-3-methylbutan-2-yl)-7-methoxy-4-oxo-1,4-dihydro-1,8-naphthyridine-3-carboxylic acid] fall in the same range of EC50: 10 to 100 nM for the first, 10 to 100 nM for the second.

`COc1nc2c(cc1NCc1ccc(Cl)c(F)c1)c(=O)c(C(=O)O)cn2[C@H](CO)C(C)C` [Example 20H, (S)-6-(4-chloro-3-fluorobenzylamino)-1-(1-hydroxy-3-methylbutan-2-yl)-7-methoxy-4-oxo-1,4-dihydro-1,8-naphthyridine-3-carboxylic acid] and `COc1nc2c(cc1NCc1ccc(Cl)c(Cl)c1)c(=O)c(C(=O)O)cn2[C@H](CO)C(C)C` [Example 20K, (S)-6-(3,4-dichlorobenzylamino)-1-(1-hydroxy-3-methylbutan-2-yl)-7-methoxy-4-oxo-1,4-dihydro-1,8-naphthyridine-3-carboxylic acid] cannot be ordered by EC50: > 100 nM for the first, > 100 nM for the second.

`COc1nc2c(cc1NCc1cc(F)cc(F)c1)c(=O)c(C(=O)O)cn2[C@H](CO)C(C)C` [Example 20HH, (S)-6-(3,5-difluorobenzylamino)-1-(1-hydroxy-3-methylbutan-2-yl)-7-methoxy-4-oxo-1,4-dihydro-1,8-naphthyridine-3-carboxylic acid] and `COc1nc2c(cc1NCc1ccc(F)c(F)c1)c(=O)c(C(=O)O)cn2[C@H](CO)C(C)C` [Example 20N, (S)-6-(3,4-difluorobenzylamino)-1-(1-hydroxy-3-methylbutan-2-yl)-7-methoxy-4-oxo-1,4-dihydro-1,8-naphthyridine-3-carboxylic acid] cannot be ordered by EC50: > 100 nM for the first, > 100 nM for the second.

First: COc1nc2c(cc1NCc1cc(F)c(F)cc1F)c(=O)c(C(=O)O)cn2[C@H](CO)C(C)C [Example 20II, (S)-1-(1-hydroxy-3-methylbutan-2-yl)-7-methoxy-4-oxo-6-(2,4,5-trifluorobenzylamino)-1,4-dihydro-1,8-naphthyridine-3-carboxylic acid]
Second: COc1nc2c(cc1NCc1ccc(F)cc1F)c(=O)c(C(=O)O)cn2[C@H](CO)C(C)C [Example 20R, (S)-6-(2,4-difluorobenzylamino)-1-(1-hydroxy-3-methylbutan-2-yl)-7-methoxy-4-oxo-1,4-dihydro-1,8-naphthyridine-3-carboxylic acid]
The EC50 of the first is higher: > 100 nM for the first, 10 to 100 nM for the second. The second is the more potent here.

`COc1nc2c(cc1NCc1ccc(Cl)cc1)c(=O)c(C(=O)O)cn2[C@H](CO)C(C)C` [Example 20J, (S)-6-(4-chlorobenzylamino)-1-(1-hydroxy-3-methylbutan-2-yl)-7-methoxy-4-oxo-1,4-dihydro-1,8-naphthyridine-3-carboxylic acid] and `COc1nc2c(cc1NCc1ccc(C(F)(F)F)cc1)c(=O)c(C(=O)O)cn2[C@H](CO)C(C)C` [Example 20Y, (S)-1-(1-hydroxy-3-methylbutan-2-yl)-7-methoxy-4-oxo-6-(4-(trifluoromethyl)benzylamino)-1,4-dihydro-1,8-naphthyridine-3-carboxylic acid] cannot be ordered by EC50: > 100 nM for the first, > 100 nM for the second.

`COc1nc2c(cc1NC1CCCc3ccccc31)c(=O)c(C(=O)O)cn2[C@H](CO)C(C)C` (stereo partly drawn) [Example 20JJ, 1-((S)-1-hydroxy-3-methylbutan-2-yl)-7-methoxy-4-oxo-6-(1,2,3,4-tetrahydronaphthalen-1-ylamino)-1,4-dihydro-1,8-naphthyridine-3-carboxylic acid] and `COc1nc2c(cc1NCc1ccccc1Cl)c(=O)c(C(=O)O)cn2[C@H](CO)C(C)C` [Example 20M, (S)-6-(2-chlorobenzylamino)-1-(1-hydroxy-3-methylbutan-2-yl)-7-methoxy-4-oxo-1,4-dihydro-1,8-naphthyridine-3-carboxylic acid] cannot be ordered by EC50: > 100 nM for the first, > 100 nM for the second.

`COc1nc2c(cc1N[C@@H](C)c1ccc(F)cc1)c(=O)c(C(=O)O)cn2[C@H](CO)C(C)C` [Example 20KK, 6-((S)-1-(4-fluorophenyl)ethylamino)-1-((S)-1-hydroxy-3-methylbutan-2-yl)-7-methoxy-4-oxo-1,4-dihydro-1,8-naphthyridine-3-carboxylic acid] and `COc1nc2c(cc1N[C@H](C)c1ccc(F)cc1)c(=O)c(C(=O)O)cn2[C@H](CO)C(C)C` [Example 20LL, 6-((R)-1-(4-fluorophenyl)ethylamino)-1-((S)-1-hydroxy-3-methylbutan-2-yl)-7-methoxy-4-oxo-1,4-dihydro-1,8-naphthyridine-3-carboxylic acid] cannot be ordered by EC50: > 100 nM for the first, > 100 nM for the second.

`COc1nc2c(cc1NCc1cccc(Cl)c1Cl)c(=O)c(C(=O)O)cn2[C@H](CO)C(C)C` [Example 20L, (S)-6-(2,3-dichlorobenzylamino)-1-(1-hydroxy-3-methylbutan-2-yl)-7-methoxy-4-oxo-1,4-dihydro-1,8-naphthyridine-3-carboxylic acid] and `COc1nc2c(cc1Nc1cccc(Cl)c1F)c(=O)c(C(=O)O)cn2[C@H](CO)C(C)C` [Example 20OO, (S)-6-(3-chloro-2-fluorophenylamino)-1-(1-hydroxy-3-methylbutan-2-yl)-7-methoxy-4-oxo-1,4-dihydro-1,8-naphthyridine-3-carboxylic acid] cannot be ordered by EC50: > 100 nM for the first, > 100 nM for the second.

`COc1nc2c(cc1NCc1ccc(F)cc1)c(=O)c(C(=O)O)cn2[C@H](CO)C(C)(C)C` [Example 20MM, (S)-6-(4-fluorobenzylamino)-1-(1-hydroxy-3,3-dimethylbutan-2-yl)-7-methoxy-4-oxo-1,4-dihydro-1,8-naphthyridine-3-carboxylic acid] and `COc1nc2c(cc1NCCc1ccc(F)cc1)c(=O)c(C(=O)O)cn2[C@H](CO)C(C)C` [Example 20T, (S)-6-(4-fluorophenethylamino)-1-(1-hydroxy-3-methylbutan-2-yl)-7-methoxy-4-oxo-1,4-dihydro-1,8-naphthyridine-3-carboxylic acid] cannot be ordered by EC50: > 100 nM for the first, > 100 nM for the second.

`COc1nc2c(cc1NCc1ccccc1)c(=O)c(C(=O)O)cn2[C@H](CO)C(C)C` [Example 20O, (S)-6-(benzylamino)-1-(1-hydroxy-3-methylbutan-2-yl)-7-methoxy-4-oxo-1,4-dihydro-1,8-naphthyridine-3-carboxylic acid] and `COc1nc2c(cc1NCc1ccccc1C(F)(F)F)c(=O)c(C(=O)O)cn2[C@H](CO)C(C)C` [Example 20W, (S)-1-(1-hydroxy-3-methylbutan-2-yl)-7-methoxy-4-oxo-6-(2-(trifluoromethyl)benzylamino)-1,4-dihydro-1,8-naphthyridine-3-carboxylic acid] cannot be ordered by EC50: > 100 nM for the first, > 100 nM for the second.

`COc1nc2c(cc1Nc1ccc(Cl)c(F)c1)c(=O)c(C(=O)O)cn2[C@H](CO)C(C)C` [Example 20PP, (S)-6-(4-chloro-3-fluorophenylamino)-1-(1-hydroxy-3-methylbutan-2-yl)-7-methoxy-4-oxo-1,4-dihydro-1,8-naphthyridine-3-carboxylic acid] and `COc1nc2c(cc1Nc1ccc(F)c(Cl)c1)c(=O)c(C(=O)O)cn2[C@H](CO)C(C)C` [Example 20RR, (S)-6-(3-chloro-4-fluorophenylamino)-1-(1-hydroxy-3-methylbutan-2-yl)-7-methoxy-4-oxo-1,4-dihydro-1,8-naphthyridine-3-carboxylic acid] cannot be ordered by EC50: > 100 nM for the first, > 100 nM for the second.

`COc1nc2c(cc1Nc1ccc(F)cc1)c(=O)c(C(=O)O)cn2[C@H](CO)C(C)C` [Example 20QQ, (S)-6-(4-fluorophenylamino)-1-(1-hydroxy-3-methylbutan-2-yl)-7-methoxy-4-oxo-1,4-dihydro-1,8-naphthyridine-3-carboxylic acid] and `COc1nc2c(cc1N(C)Cc1ccc(F)cc1)c(=O)c(C(=O)O)cn2[C@H](CO)C(C)C` [Example 20V, (S)-6-((4-fluorobenzyl)(methyl)amino)-1-(1-hydroxy-3-methylbutan-2-yl)-7-methoxy-4-oxo-1,4-dihydro-1,8-naphthyridine-3-carboxylic acid] cannot be ordered by EC50: > 100 nM for the first, > 100 nM for the second.

`COc1nc2c(cc1NCCc1ccccc1F)c(=O)c(C(=O)O)cn2[C@H](CO)C(C)C` [Example 20S, (S)-6-(2-fluorophenethylamino)-1-(1-hydroxy-3-methylbutan-2-yl)-7-methoxy-4-oxo-1,4-dihydro-1,8-naphthyridine-3-carboxylic acid] and `COc1nc2c(cc1N(C)Cc1ccccc1F)c(=O)c(C(=O)O)cn2[C@H](CO)C(C)C` [Example 20U, (S)-6-((2-fluorobenzyl)(methyl)amino)-1-(1-hydroxy-3-methylbutan-2-yl)-7-methoxy-4-oxo-1,4-dihydro-1,8-naphthyridine-3-carboxylic acid] cannot be ordered by EC50: > 100 nM for the first, > 100 nM for the second.

Going from `COc1nc2c(cc1NCc1cccc(C(F)(F)F)c1)c(=O)c(C(=O)O)cn2[C@H](CO)C(C)C` [Example 20X, (S)-1-(1-hydroxy-3-methylbutan-2-yl)-7-methoxy-4-oxo-6-(3-(trifluoromethyl)benzylamino)-1,4-dihydro-1,8-naphthyridine-3-carboxylic acid] to `COc1cc2c(cc1NCc1ccc(F)cc1)c(=O)c(C(=O)O)cn2[C@H](CO)C(C)C` [Example 21A, (S)-6-(4-Fluorobenzylamino)-1-(1-hydroxy-3-methylbutan-2-yl)-7-methoxy-4-oxo-1,4-dihydroquinoline-3-carboxylic acid], the EC50 falls from > 100 nM to < 10 nM.
